The assay deals with L1210 leukemia ip in BDF1 mice, survival T/C. In words: NCI In Vivo Anticancer Drug Screen. Data for tumor model L1210 Leukemia (intraperitoneal) in B6D2F1 (BDF1) mice. Conditions: endpoint: mean survival time, higher = longer survival. In short, it runs like this:
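Value reflects the ratio of survival in compound-treated mice to survival in vehicle-treated controls, with both groups carrying the same transplanted tumor.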

Where [1] appears, read: dose: 100.0 mg/kg/injection, schedule: Q01DX001 (ip), vehicle: saline with Tween-80.
The mark [2] stands for this setting: dose: 100.0 mg/kg/injection, schedule: Q04DX003 (ip), vehicle: saline with Tween-80.
Setting [3] is: dose: 100.0 mg/kg/injection, schedule: Q01DX001 (ip), vehicle: carboxymethylcellulose (CMC).
Setting [4] is: dose: 200.0 mg/kg/injection, schedule: Q01DX001 (ip), vehicle: carboxymethylcellulose (CMC).
Where [5] appears, read: dose: 200.0 mg/kg/injection, schedule: Q04DX003 (ip), vehicle: saline with Tween-80.
Setting [6] is: dose: 400.0 mg/kg/injection, schedule: Q01DX001 (ip), vehicle: carboxymethylcellulose (CMC).
Setting [7] is: dose: 400.0 mg/kg/injection, schedule: Q04DX003 (ip), vehicle: saline with Tween-80.
The mark [8] stands for this setting: dose: 100.0 mg/kg/injection, schedule: Q01DX009 (ip), vehicle: Klucel (hydroxypropylcellulose) (HPC).
Where [9] appears, read: dose: 200.0 mg/kg/injection, schedule: Q01DX009 (ip), vehicle: Klucel (hydroxypropylcellulose) (HPC).
[10] abbreviates: dose: 400.0 mg/kg/injection, schedule: Q01DX009 (ip), vehicle: Klucel (hydroxypropylcellulose) (HPC).

SMILES strings stand for the structures. Where “and” joins values, the source holds several entries; their conditions need not be identical. Identical values can stand only once. Toxic doses and inconclusive results are not listed.

For `[O-][n+]1onc2ccccc21`, the T/C under setting [1] was 97 % of control.
Consider `O=C(OC(=O)c1cccc(-c2ccccc2)c1)c1cccc(-c2ccccc2)c1`, for which the T/C reads like this: (dose: 100.0 mg/kg/injection, schedule: Q04DX003 (ip), vehicle: Klucel (hydroxypropylcellulose) (HPC)) 104 % of control; (dose: 200.0 mg/kg/injection, schedule: Q04DX003 (ip), vehicle: Klucel (hydroxypropylcellulose) (HPC)) 101 % of control; (dose: 400.0 mg/kg/injection, schedule: Q04DX003 (ip), vehicle: Klucel (hydroxypropylcellulose) (HPC)) 96 % of control.
Regarding `CC1(C)OC2C(CO)OC(n3cnc4c(=O)[nH]cnc43)C2O1` (centres undefined), the T/C was 102 % of control (dose: 75.0 mg/kg/injection, schedule: Q01DX001 (ip), vehicle: saline) and 92 % of control (dose: 150.0 mg/kg/injection, schedule: Q01DX001 (ip), vehicle: saline).
On to `CCCCCCCCCCCCOC(=O)C[n+]1cccc(C(=O)NCc2ccccc2)c1`, for which the T/C was 98 % of control (dose: 6.25 mg/kg/injection, schedule: Q01DX009 (ip), vehicle: saline with Tween-80); 94 % of control (dose: 12.5 mg/kg/injection, schedule: Q01DX009 (ip), vehicle: saline with Tween-80); 102 % of control (dose: 25.0 mg/kg/injection, schedule: Q01DX009 (ip), vehicle: saline with Tween-80).
For the molecule `CC(Cl)CNC(=O)N(CC(C)Cl)N=O` (centres undefined), the T/C was 108 % of control (dose: 8.0 mg/kg/injection, schedule: Q01DX001 (ip), vehicle: carboxymethylcellulose (CMC)); 101 % of control (dose: 16.0 mg/kg/injection, schedule: Q01DX001 (ip), vehicle: carboxymethylcellulose (CMC)); 97 % of control (dose: 31.0 mg/kg/injection, schedule: Q01DX001 (ip), vehicle: carboxymethylcellulose (CMC)); 100 % of control (dose: 62.0 mg/kg/injection, schedule: Q01DX001 (ip), vehicle: carboxymethylcellulose (CMC)); 97 % of control (dose: 125.0 mg/kg/injection, schedule: Q01DX001 (ip), vehicle: carboxymethylcellulose (CMC)); 101 % of control (dose: 250.0 mg/kg/injection, schedule: Q01DX001 (ip), vehicle: carboxymethylcellulose (CMC)). Moreover, the T/C was 103 % of control (dose: 375.0 mg/kg/injection, schedule: Q01DX001 (ip), vehicle: carboxymethylcellulose (CMC)); 122 % of control (dose: 500.0 mg/kg/injection, schedule: Q01DX001 (ip), vehicle: carboxymethylcellulose (CMC)); 197 % of control (dose: 750.0 mg/kg/injection, schedule: Q01DX001 (ip), vehicle: carboxymethylcellulose (CMC)); 240 % of control (dose: 1000.0 mg/kg/injection, schedule: Q01DX001 (ip), vehicle: carboxymethylcellulose (CMC)).
Take `Nc1nc(CCc2ccc(NC(=O)CBr)cc2)c(CCCCc2ccccc2)c(=O)[nH]1`: the T/C (dose: 50.0 mg/kg/injection, schedule: Q01DX001 (ip), vehicle: saline) was 104 % of control; the T/C (dose: 100.0 mg/kg/injection, schedule: Q01DX001 (ip), vehicle: saline) was 102 % of control; the T/C (dose: 200.0 mg/kg/injection, schedule: Q01DX001 (ip), vehicle: saline) was 96 % of control; the T/C (dose: 400.0 mg/kg/injection, schedule: Q01DX001 (ip), vehicle: saline) was 110 % of control.
As to `C=C(Br)CNC(=O)C(C)C`, the T/C was 102 % of control (dose: 5.0 mg/kg/injection, schedule: Q04DX003 (ip), vehicle: saline with Tween-80); 103 % of control (dose: 10.0 mg/kg/injection, schedule: Q04DX003 (ip), vehicle: saline with Tween-80); 102 % of control (dose: 20.0 mg/kg/injection, schedule: Q04DX003 (ip), vehicle: saline with Tween-80).
Take `N=C(CCCc1ccccc1)SCc1ccccc1`: the T/C reads like this: (dose: 50.0 mg/kg/injection, schedule: Q01DX009 (ip), vehicle: saline with Tween-80) 103 % of control; (dose: 50.0 mg/kg/injection, schedule: Q04DX003 (ip), vehicle: saline with Tween-80) 94 % of control; under setting [1], 102 % of control; (dose: 100.0 mg/kg/injection, schedule: Q01DX009 (ip), vehicle: saline with Tween-80) 92 % of control; under setting [2], 93 % of control; (dose: 200.0 mg/kg/injection, schedule: Q01DX001 (ip), vehicle: saline with Tween-80) 102 % of control.
On to `CNc1nc(SC)ncc1C`, for which the T/C runs as follows: (dose: 25.0 mg/kg/injection, schedule: Q01DX Z (ip), vehicle: methylcellulose (MC)) 92 % of control; (dose: 50.0 mg/kg/injection, schedule: Q01DX Z (ip), vehicle: methylcellulose (MC)) 89 % of control.
With `Cc1ccc(C(=O)N/N=C/c2ccccc2O)cc1`, the T/C was 89 % of control (dose: 100.0 mg/kg/injection, schedule: Q04DX002 (ip), vehicle: Klucel (hydroxypropylcellulose) (HPC)); 92 % of control (dose: 200.0 mg/kg/injection, schedule: Q04DX002 (ip), vehicle: Klucel (hydroxypropylcellulose) (HPC)); 105 % of control (dose: 400.0 mg/kg/injection, schedule: Q04DX002 (ip), vehicle: Klucel (hydroxypropylcellulose) (HPC)).
Take `O=C(C(=O)c1ccc(Cl)cc1)c1ccc(Cl)cc1`: the T/C is, setting by setting: (dose: 1.56 mg/kg/injection, schedule: Q01DX009 (ip), vehicle: other) 106 % of control; (dose: 3.13 mg/kg/injection, schedule: Q01DX009 (ip), vehicle: other) 95 % of control; (dose: 6.25 mg/kg/injection, schedule: Q01DX009 (ip), vehicle: other) 97 % of control and 92 % of control; (dose: 25.0 mg/kg/injection, schedule: Q01DX009 (ip), vehicle: other) 88 % of control; (dose: 50.0 mg/kg/injection, schedule: Q01DX001 (ip), vehicle: carboxymethylcellulose (CMC)) 94 % of control; under setting [3], 94 % of control. Moreover, the T/C is 86 % of control under setting [2]; 89 % of control under setting [4]; 88 % of control under setting [5]; 92 % of control under setting [6]; 88 % of control under setting [7].
In the case of `CCC(C)C(CN)(CCCCN1CCCC1)c1cccc2ccccc12` (centres undefined), under setting [2], the T/C was 102 % of control.
Turning to `COc1ccc(CNS(=O)(=O)c2ccc(C)cc2)cc1OC`, the T/C is 96 % of control under setting [3], 110 % of control under setting [4] and 116 % of control under setting [6].
Consider `N=C1C(=O)C(=N)c2ccccc2-c2ccccc21`, for which the T/C reads like this: under setting [8], 94 % of control; under setting [9], 97 % of control; under setting [10], 95 % of control.
In the case of `CCOC(=O)C12CCC(=O)CC1(O)CCC1(C2)OCCCO1` (centres undefined), the T/C was 98 % of control (dose: 100.0 mg/kg/injection, schedule: Q## X003 (ip), vehicle: saline); 104 % of control (dose: 200.0 mg/kg/injection, schedule: Q## X003 (ip), vehicle: saline); 102 % of control (dose: 400.0 mg/kg/injection, schedule: Q## X003 (ip), vehicle: saline).
Take `CC(C)=CCNc1ncnc2c(C3OC(CO)C(O)C3O)[nH]nc12` (centres undefined): the T/C was 95 % of control (dose: 100.0 mg/kg/injection, schedule: Q01DX005 (ip), vehicle: saline) and 95 % of control (dose: 200.0 mg/kg/injection, schedule: Q01DX005 (ip), vehicle: saline).
Consider `CCOc1ccc(CO)cc1`, for which the T/C is 97 % of control under setting [2], 100 % of control under setting [5] and 89 % of control under setting [7].
Consider `COc1ccccc1C(CC(=O)c1ccccc1)Sc1ccccc1N` (centres undefined), for which the T/C is 118 % of control and 89 % of control (dose: 100.0 mg/kg/injection, schedule: Q01DX005 (ip), vehicle: Klucel (hydroxypropylcellulose) (HPC)); 93 % of control under setting [8]; 97 % of control (dose: 130.0 mg/kg/injection, schedule: Q01DX005 (ip), vehicle: Klucel (hydroxypropylcellulose) (HPC)); 115 % of control and 90 % of control (dose: 200.0 mg/kg/injection, schedule: Q01DX005 (ip), vehicle: Klucel (hydroxypropylcellulose) (HPC)); 93 % of control under setting [9]; 103 % of control (dose: 300.0 mg/kg/injection, schedule: Q01DX005 (ip), vehicle: Klucel (hydroxypropylcellulose) (HPC)). Further, the T/C runs as follows: (dose: 400.0 mg/kg/injection, schedule: Q01DX005 (ip), vehicle: Klucel (hydroxypropylcellulose) (HPC)) 96 % of control and 87 % of control; under setting [10], 86 % of control.
With `Cc1o[nH]c(=O)c1C`, the T/C is 103 % of control under setting [2], 94 % of control under setting [5] and 103 % of control under setting [7].

Source of the values: PubChem BioAssay AID248 (DTP/NCI, 2004).
